Results published in PMC11747885, “Potent inhibitors of the human RNA ligase Rlig1 highlights its role in RNA integrity maintenance under oxidative cellular stress” (Chemical Science, 2025).
≈ marks a conversion by molar mass, not a printed value. Where “and” joins values, the source holds several entries; their conditions need not be identical. Identical values can stand only once. Like-named read-outs stand apart in the source and are kept apart here.

Experiments:
[1] = ultrasonic/warming, ref MedChemExpress, cited from earlier work
Rlig1-AMP = target: T1, Rlig1-AMP (Homo sapiens, UniProt Q8N999); assay: FRET-based high-throughput screening of inhibitors for Rlig1-AMP; type: biochemical; conditions: for 1-D Distance: difference of raw data w/o and w enzyme; for Raw data [w Enyzm]: with enzyme; for Raw data [w/o Enzym]: without enzyme
T1 construct: made in house; host or cells: E. coli BL21 (DE3), pET15b-Rlig1

[2] = DMSO; ref MedChemExpress; cited from earlier work
[3] = ref MedChemExpress, cited from earlier work; for solubility, DMSO: in DMSO; for solubility, H2O: in H2O
[4] = HTS hits, normalized value (npi)

T1 sequence (Q8N999 whole entry): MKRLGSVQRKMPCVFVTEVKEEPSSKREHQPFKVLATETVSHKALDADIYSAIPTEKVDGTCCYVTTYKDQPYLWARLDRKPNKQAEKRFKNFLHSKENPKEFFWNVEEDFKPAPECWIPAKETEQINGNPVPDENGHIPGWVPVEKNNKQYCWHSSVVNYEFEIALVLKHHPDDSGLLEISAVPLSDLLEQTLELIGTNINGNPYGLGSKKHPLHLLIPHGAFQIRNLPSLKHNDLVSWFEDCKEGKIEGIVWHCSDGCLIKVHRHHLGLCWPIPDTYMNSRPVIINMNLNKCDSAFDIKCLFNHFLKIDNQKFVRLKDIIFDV

| SMILES | solubility, DMSO ([1]; DMSO) | solubility, H2O ([1]; H2O) | 1-D Distance (Rlig1-AMP; HTS hits) | 1-D Distance.npi (Rlig1-AMP; HTS hits, normalised value of 1-D Distance) | Raw data [w Enyzm] (Rlig1-AMP; HTS hits) | Raw data [w/o Enzym] (Rlig1-AMP; HTS hits) | solubility [2] | 1-D Distance.npi (Rlig1-AMP; [4]) | 1-D Distance (Rlig1-AMP; sheet HTS hits) | Raw data [w Enyzm] (Rlig1-AMP; sheet HTS hits) | Raw data [w/o Enzym] (Rlig1-AMP; sheet HTS hits) | solubility, DMSO [3] | solubility, H2O [3] [µg/mL] | 1-D Distance.npi (Rlig1-AMP; sheet HTS hits, MedChemExpress library) |
| --- | --- | --- | --- | --- | --- | --- | --- | --- | --- | --- | --- | --- | --- | --- |
| C[n+]1ccc(-c2c3nc(c(-c4cc[n+](C)cc4)c4ccc([nH]4)c(-c4cc[n+](C)cc4)c4nc(c(-c5cc[n+](C)cc5)c5ccc2[nH]5)C=C4)C=C3)cc1.Cc1ccc(S(=O)(=O)[O-])cc1.Cc1ccc(S(=O)(=O)[O-])cc1.Cc1ccc(S(=O)(=O)[O-])cc1.Cc1ccc(S(=O)(=O)[O-])cc1 [TMPyP4 tosylate] | 10 mg/mL and 7.33 mM | 25 mg/mL and 18.33 mM | 40 | 106.113 | 658 | 698 | – | – | – | – | – | – | – | – |
| O=C1c2ccccc2-c2nc3nnnn3nc21.O=C1c2ccccc2-c2nn3nnnc3nc21 [KP372-1] | – | – | 385 | – | 14308 | 13923 | 17.86 mg/mL and 39.83 mM | 99.8878 | – | – | – | – | – | – |
| CO[C@H]1/C=C/O[C@@]2(C)Oc3c(C)c(O)c4c(O)c(c(/C=N/N5CCN(C)CC5)c(O)c4c3C2=O)NC(=O)/C(C)=C\C=C\[C@H](C)[C@H](O)[C@@H](C)[C@@H](O)[C@@H](C)[C@H](OC(C)=O)[C@@H]1C [Rifampicin] | – | – | – | – | – | – | – | – | 268 | 2212 | 2480 | 50000 µg/mL (≈ 60.8 mM) | 1000 (≈ 1.22 mM) | – |
| COC(=O)c1cc(OC)c2c(c1-c1c(C(=O)OC)cc(OC)c3c1OCO3)OCO2 [Bifendate] | – | – | – | – | – | – | – | – | 1790 | 9076 | 10866 | 50000 µg/mL (≈ 120 mM) | 1000 (≈ 2.39 mM) | – |
| Cn1nc(-c2ccc(C(F)(F)F)cc2)nc2c(=O)n(C)c(=O)nc1-2 [Walrycin B] | – | – | 868 | – | 16245 | 17113 | 11.5 mg/mL and 34.10 mM | 89.8871 | – | – | – | – | – | – |
| CCOc1ccccc1OCCN[C@H](C)Cc1ccc(OC)c(S(N)(=O)=O)c1 [Tamsulosin] | – | – | – | – | – | – | – | – | 1837 | 8934 | 10771 | DMSO : 100 mg/mL (244.79 mM; Need ultrasonic) | – | – |
| CC1=NN(c2ccc(C)c(C)c2)C(=O)/C1=N\Nc1cccc(-c2cccc(C(=O)O)c2)c1O [Eltrombopag] | – | – | – | – | – | – | – | – | 1388 | 3742 | 5130 | 8330 µg/mL (≈ 18.8 mM) | < 100 | – |
| [N-]=[N+]=NCCOCCOCCOCCN(CCOCCOCCN)CCOCCOCCOCCN=[N+]=[N-] [N-(Amino-PEG2)-N-bis(PEG3-azide)] | – | – | – | – | – | – | – | – | 1919 | 9036 | 10955 | DMSO : 100 mg/mL (181.60 mM; Need ultrasonic) | – | 72.3118 |
